The values that follow come from patent US7304064B2, “1-[(indol-3-yl)carbonyl]piperazine derivatives” (N.V. Organon, priority 2002, dated 2007).

Read-outs that look alike come from different tables or passages of the source.

Assay [1] concerns the target T1, human CB1 receptor (Homo sapiens, UniProt P21554).
T1 construct: expressed in transfected cells; host or cells: CHO (Chinese Hamster Ovary) cells
In words: In-vitro determination of efficacy and potency at the human CB1 receptor expressed in CHO cells (luciferase reporter). Format: cell-based.

Assay [2] concerns Mice. In words: Tail flick latency in mice. Format: in vivo. Conditions: Mus musculus, iv, administered intravenously, ED50 calculated at Tmax, read-out: ED50 (increase of tail flick latency). As for the experimental part:
Mice were trained to sit still in a tail flick apparatus (Ugo Basile, Italy) whilst tail flick latency was measured. The tail was exposed to a focused beam of radiant heat at a point approximately 2.5 cm from the tip. Tail flick latency was defined as the interval between the appliance of the thermal stimulus and withdrawal of the tail. A 12 second cut-off was employed to prevent tissue damage. Four groups of eight mice were treated with vehicle or one of three doses of the test compound, administered intravenously (vehicle: saline 9 g/l; injection volume 10 ml/kg). Tail flick latency was measured before administration of the test compound and at regular intervals (typically 20, 40 and 60 minutes) after compound administration. The ED50 was calculated at Tmax.

Where [3] appears, read: CHO cells expressing the human CB1 receptor and a luciferase reporter gene, 5 hours incubation, read-out: pEC50 (converted).

T1 sequence (P21554 whole entry): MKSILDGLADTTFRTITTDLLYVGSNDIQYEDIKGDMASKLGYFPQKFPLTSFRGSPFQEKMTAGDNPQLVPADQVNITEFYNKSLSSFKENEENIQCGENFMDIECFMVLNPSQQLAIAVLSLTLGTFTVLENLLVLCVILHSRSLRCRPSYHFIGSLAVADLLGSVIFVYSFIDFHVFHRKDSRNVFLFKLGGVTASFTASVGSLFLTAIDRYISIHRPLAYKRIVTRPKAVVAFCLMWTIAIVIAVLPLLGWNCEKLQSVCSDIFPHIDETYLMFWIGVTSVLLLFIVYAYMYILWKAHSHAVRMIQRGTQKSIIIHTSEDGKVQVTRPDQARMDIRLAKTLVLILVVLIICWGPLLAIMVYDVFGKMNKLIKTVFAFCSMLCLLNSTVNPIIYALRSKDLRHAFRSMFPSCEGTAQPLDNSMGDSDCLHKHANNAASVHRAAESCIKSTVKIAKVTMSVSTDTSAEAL

For the molecule `COc1cccc2c(C(=O)N3CCN(CCO)CC3)cn(CC3CCCCC3)c12` [Example 3C, 1-{[1-(Cyclohexylmethyl)-7-methoxy-1H-indol-3-yl]carbonyl}-4-(2-hydroxyethyl)piperazine], the EC50 in assay [1] (setting [3]) is 251 nM.

For orientation: ED50 means the midpoint of the dose-response relation. For the molecule `COc1cccc2c(C(=O)N3CC(C)N(C)C(C)C3)cn(CC3CCCCC3)c12` (centres unmarked) [Example 15F, 1-{[1-(cyclohexylmethyl)-7-methoxy-1H-indol-3-yl]carbonyl}-3,4,5-trimethylpiperazine], in assay [1], the EC50 was 31.6 nM. Besides, the median effective dose (ED50) in assay [2] was less than 5 µmol/kg.

In the case of `CCN1CCN(C(=O)c2cn(C(C)C3CCCCC3)c3ccccc23)CC1` (single isomer, unassigned; (+)) [(+)-5I, (+)-1-{[1-(1-Cyclohexylethyl)-1H-indol-3-yl]carbonyl)-4-ethylpiperazine], in assay [1], the EC50 is 79.4 nM.

Take `COc1cccc2c(C(=O)N3CCN(C)[C@@H](C)C3)cn(CC3CCCCC3)c12` [Example 15O, (S)-1-{[1-(cyclohexylmethyl)-7-methoxy-1H-indol-3-yl]carbonyl}-3,4-dimethylpiperazine]: the EC50 in assay [1] was 25.1 nM. Also, in assay [2], the ED50 is less than 5 µmol/kg.

`CCN1CCN(C(=O)c2cn(Cc3ccccc3)c3c(OC)cccc23)CC1` [Ref. 3., 1-{[1-Benzyl-7-methoxy-1H-indol-3-yl]carbonyl}-4-ethylpiperazine, reference compound] came in with an EC50 in assay [1] of more than 10000 nM.

For the molecule `COc1cccc2c(C(=O)N3CCN4CCC[C@H]4C3)cn(CC3CCCCC3)c12` [Example 17C, (S)-2-{[1-(Cyclohexylmethyl)-7-methoxy-1H-indol-3-yl]carbonyl}-octahydro-2H-Pyrrolo[1,2-a]pyrazine], the EC50 in assay [1] (setting [3]) is 25.1 nM. Besides, the 50% effective dose (ED50) in assay [2] is less than 5 µmol/kg.

Take `CCN1CCN(C(=O)c2cn(CC3CCCCC3)c3c(F)cccc23)CC1` [Example 5B, 1-{[1-(Cyclohexylmethyl)-7-fluoro-1H-indol-3-yl]carbonyl}-4-ethylpiperazine]: the EC50 in assay [1] is 100 nM.

In turn, `CCN1C(C)CN(C(=O)c2cn(CC3CCCCC3)c3c(OC)cccc23)CC1C` (centres unmarked) [Example 14, 1-{[1-(Cyclohexylmethyl)-7-methoxy-1H-indol-3-yl]carbonyl}-3,5-dimethyl-4-ethylpiperazine] gave an EC50 in assay [1] of 10 nM. Further, the median effective dose (ED50) in assay [2] was less than 5 µmol/kg.

For the molecule `CN1CCN(C(=O)c2cn(CC3CCCCC3)c3cc(F)ccc23)CC1` [Example 5T, 1-{[1-(Cyclohexylmethyl)-6-fluoro-1H-indol-3-yl]carbonyl}-4-methylpiperazine], the EC50 in assay [1] is 251 nM.

`CCN1CCN(C(=O)c2cn(CC3CCCC3)c3c(OC)cccc23)CC1` [Example 2, 1-{[1-(Cyclopentylmethyl)-7-methoxy-1H-indol-3-yl]carbonyl}-4-ethylpiperazine] had an EC50 in assay [1] of 316 nM.

Molecule `CCN1CCN(C(=O)c2cn(CC3CC=CCC3)c3c(OC)cccc23)CC1` (centres unmarked) [Example 5Q, 1-{[1-(Cyclohex-3-enylmethyl)-7-methoxy-1H-indol-3-yl]carbonyl}-4-ethylpiperazine] gave an EC50 in assay [1] of 200 nM.

Take `COc1cccc2c(C(=O)N3CCN4CCCC[C@H]4C3)cn(CC3CCCCC3)c12` [Example 17A, (S)-2-{[1-(Cyclohexylmethyl)-7-methoxy-1H-indol-3-yl]carbonyl}-octahydro-2H-Pyrido[1,2-a]pyrazine]: the EC50 in assay [1] (setting [3]) is 12.6 nM. In assay [2], the ED50 is less than 5 µmol/kg.

Consider `COc1cccc2c(C(=O)N3CCN4CCCC[C@H]4C3)cn(CC3CCCC3)c12` [Example 17D, (S)-2-{[1-(Cyclopentylmethyl)-7-methoxy-1H-indol-3-yl]carbonyl}-octahydro-2H-pyrido[1,2-a]pyrazine], for which, in assay [1] (setting [3]), the EC50 is 31.6 nM. Further, in assay [2], the median effective dose (ED50) was less than 5 µmol/kg.

The molecule `CCN1CCN(C(=O)c2cn(CCN3CCOCC3)c3c(OC)cccc23)CC1` [Ref. 2, 1-Ethyl-4-{[7-methoxy-1-[2-(4-morpholin-yl)ethyl]-1H-indol-3-y]carbonyl}-piperazine, reference compound] yielded an EC50 in assay [1] of more than 10000 nM.
